Experimental data from patent US20240082244A1, “PHARMACEUTICAL FORMULATION” (Redx Pharma PLC, priority 2021, published 2024).

Experiment: Experimental stability/excipient compatibility study of prototype formulation
Format: physicochemical
Conditions: with Vitamin E polyethylene glycol succinate and gelatin capsule shell; 25° C./60% RH and 40° C./75% RH over a 1-month period
Description: A homogeneous solution of Compound I is formed with the Vitamin E polyethylene glycol succinate (TPGS), which enables good uniformity of content to be achieved at low strengths.

Degradation of Compound I in prototype formulation: No significant degradation
Compound: Cc1c(-c2ccnc(C(F)(F)F)c2)ncn1CC(=O)Nc1ccc(-c2cnccn2)cn1 [Compound I]
